Publication PMC10938783, “A novel pan-PI3K inhibitor KTC1101 synergizes with anti-PD-1 therapy by targeting tumor suppression and immune activation” (Molecular Cancer, 2024)

Test system: B16 cells gene expression
Assay: RNA-Seq (DEGs, GSEA, heatmaps) of B16 cells
Settings: B16 cells, KTC 0.2μM
[1] = GSEA gene set HALLMARK_PI3K_AKT_MTOR_SIGNALING
[2] = GSEA gene set HALLMARK_PROTEIN_SECRETION
[3] = GSEA gene set HALLMARK_REACTIVE_OXIGEN_SPECIES_PATHWAY
[4] = GSEA gene set HALLMARK_SPERMATOGENESIS
[5] = GSEA gene set HALLMARK_TGF_BETA_SIGNALING
[6] = GSEA gene set HALLMARK_TNFA_SIGNALING_VIA_NFKB
[7] = GSEA gene set HALLMARK_UNFOLDED_PROTEIN_RESPONSE
[8] = GSEA gene set HALLMARK_UV_RESPONSE_DN
[9] = GSEA gene set HALLMARK_UV_RESPONSE_UP
[10] = GSEA gene set HALLMARK_WNT_BETA_CATENIN_SIGNALING
[11] = GSEA gene set HALLMARK_XENOBIOTIC_METABOLISM

COc1cc(N)cc2c1nc(C(F)F)n2-c1nc(N2CCCOCC2)nc(N2CCOCC2)n1 [KTC1101, 2-(difluoromethyl)-4-methoxy-1-(4-morpholino-6-(1,4-oxazepan-4-yl)-1,3,5-triazin-2-yl)-1H-benzo[d]imidazol-6-amine]
enrichmentScore (GSEA gene set HALLMARK_PEROXISOME): -0.395
NES [1]: -2.189
enrichmentScore [1]: -0.5044
NES [2]: -1.203
enrichmentScore [2]: -0.2769
NES [3]: -1.95
enrichmentScore [3]: -0.5432
NES [4]: -1.401
enrichmentScore [4]: -0.3536
NES [5]: 1.944
enrichmentScore [5]: 0.6123
NES [6]: 2.211
enrichmentScore [6]: 0.5723
NES [7]: -1.548
enrichmentScore [7]: -0.347
NES [8]: 1.23
enrichmentScore [8]: 0.3315
NES [9]: 1.315
enrichmentScore [9]: 0.3557
NES [10]: 0.901
enrichmentScore [10]: 0.3071
NES [11]: -1.2042
enrichmentScore [11]: -0.2641
NES: Glycolysis / Gluconeogenesis (GSEA KEGG mmu00010): -1.905
enrichmentScore: Glycolysis / Gluconeogenesis (GSEA KEGG mmu00010): -0.5183
NES: Citrate cycle (TCA cycle) (GSEA KEGG mmu00020): -1.91
enrichmentScore: Citrate cycle (TCA cycle) (GSEA KEGG mmu00020): -0.5694
NES: Pentose phosphate pathway (GSEA KEGG mmu00030): -1.779
enrichmentScore: Pentose phosphate pathway (GSEA KEGG mmu00030): -0.5767
NES: Fructose and mannose metabolism (GSEA KEGG mmu00051): -1.345
enrichmentScore: Fructose and mannose metabolism (GSEA KEGG mmu00051): -0.4104
NES: Galactose metabolism (GSEA KEGG mmu00052): -1.484
enrichmentScore: Galactose metabolism (GSEA KEGG mmu00052): -0.4712
NES: Oxidative phosphorylation (GSEA KEGG mmu00190): -2.112
enrichmentScore: Oxidative phosphorylation (GSEA KEGG mmu00190): -0.4855
NES: Purine metabolism (GSEA KEGG mmu00230): 1.524
enrichmentScore: Purine metabolism (GSEA KEGG mmu00230): 0.4484
NES: Pyrimidine metabolism (GSEA KEGG mmu00240): -1.587
enrichmentScore: Pyrimidine metabolism (GSEA KEGG mmu00240): -0.5015
NES: Alanine, aspartate and glutamate metabolism (GSEA KEGG mmu00250): -1.481
enrichmentScore: Alanine, aspartate and glutamate metabolism (GSEA KEGG mmu00250): -0.506
NES: Glycine, serine and threonine metabolism (GSEA KEGG mmu00260): -2.025
enrichmentScore: Glycine, serine and threonine metabolism (GSEA KEGG mmu00260): -0.643
NES: Cysteine and methionine metabolism (GSEA KEGG mmu00270): -1.68
enrichmentScore: Cysteine and methionine metabolism (GSEA KEGG mmu00270): -0.4743
NES: Valine, leucine and isoleucine degradation (GSEA KEGG mmu00280): -1.453
enrichmentScore: Valine, leucine and isoleucine degradation (GSEA KEGG mmu00280): -0.399
NES: Arginine and proline metabolism (GSEA KEGG mmu00330): -1.547
enrichmentScore: Arginine and proline metabolism (GSEA KEGG mmu00330): -0.474
NES: Glutathione metabolism (GSEA KEGG mmu00480): -1.885
enrichmentScore: Glutathione metabolism (GSEA KEGG mmu00480): -0.5172
NES: Amino sugar and nucleotide sugar metabolism (GSEA KEGG mmu00520): -1.225
enrichmentScore: Amino sugar and nucleotide sugar metabolism (GSEA KEGG mmu00520): -0.3367
NES: Glycerolipid metabolism (GSEA KEGG mmu00561): -1.232
enrichmentScore: Glycerolipid metabolism (GSEA KEGG mmu00561): -0.3383
NES: Ether lipid metabolism (GSEA KEGG mmu00565): -1.318
enrichmentScore: Ether lipid metabolism (GSEA KEGG mmu00565): -0.4355
NES: Pyruvate metabolism (GSEA KEGG mmu00620): -1.8611
enrichmentScore: Pyruvate metabolism (GSEA KEGG mmu00620): -0.5447
NES: Glyoxylate and dicarboxylate metabolism (GSEA KEGG mmu00630): -2.109
enrichmentScore: Glyoxylate and dicarboxylate metabolism (GSEA KEGG mmu00630): -0.6578
NES: Propanoate metabolism (GSEA KEGG mmu00640): -1.418
enrichmentScore: Propanoate metabolism (GSEA KEGG mmu00640): -0.4326
NES: Terpenoid backbone biosynthesis (GSEA KEGG mmu00900): -2.318
enrichmentScore: Terpenoid backbone biosynthesis (GSEA KEGG mmu00900): -0.7921
NES: Drug metabolism - other enzymes (GSEA KEGG mmu00983): -1.978
enrichmentScore: Drug metabolism - other enzymes (GSEA KEGG mmu00983): -0.5867
NES: Carbon metabolism (GSEA KEGG mmu01200): -2.129
enrichmentScore: Carbon metabolism (GSEA KEGG mmu01200): -0.4924
NES: 2-Oxocarboxylic acid metabolism (GSEA KEGG mmu01210): -1.574
enrichmentScore: 2-Oxocarboxylic acid metabolism (GSEA KEGG mmu01210): -0.4801
NES: Fatty acid metabolism (GSEA KEGG mmu01212): -1.192
enrichmentScore: Fatty acid metabolism (GSEA KEGG mmu01212): -0.3243
NES: Biosynthesis of amino acids (GSEA KEGG mmu01230): -2.742
enrichmentScore: Biosynthesis of amino acids (GSEA KEGG mmu01230): -0.7082
NES: Nucleotide metabolism (GSEA KEGG mmu01232): -1.799
enrichmentScore: Nucleotide metabolism (GSEA KEGG mmu01232): -0.4975
NES: Biosynthesis of cofactors (GSEA KEGG mmu01240): -1.22
enrichmentScore: Biosynthesis of cofactors (GSEA KEGG mmu01240): -0.2823
NES: EGFR tyrosine kinase inhibitor resistance (GSEA KEGG mmu01521): 1.545
enrichmentScore: EGFR tyrosine kinase inhibitor resistance (GSEA KEGG mmu01521): 0.4546
